Test results: ChEMBL document CHEMBL1140860, “Synthesis and evaluation of dihydroartemisinin and dihydroartemisitene acetal dimers showing anticancer and antiprotozoal activity” (Bioorg Med Chem, 2009)
pIC50: −log10 of the molar value.

Assays:
[1] = Growth inhibition of human […] cells after 48 hrs by sulforhodamine B assay; format: functional
[2] = tested on: U-251; experiment: Growth inhibition of human U251 cells after 48 hrs by sulforhodamine B assay; format: functional; conditions: U-251, 48 h
[3] = tested on: MCF7; experiment: Growth inhibition of human MCF7 cells after 48 hrs by sulforhodamine B assay; format: functional; conditions: MCF7, 48 h
[4] = tested on: UO-31; experiment: Growth inhibition of human UO31 cells after 48 hrs by sulforhodamine B assay; format: functional; conditions: UO-31, 48 h
[5] = tested on: NCI/ADR-RES; experiment: Growth inhibition of human NCI/ADR-RES cells after 48 hrs by sulforhodamine B assay; format: functional
[6] = tested on: A549; experiment: Growth inhibition of human A549 cells after 48 hrs by sulforhodamine B assay; format: functional; conditions: A549, 48 h
[7] = tested on: K562; experiment: Growth inhibition of human K562 cells after 48 hrs by sulforhodamine B assay; format: functional; conditions: K562, 48 h
[8] = tested on: OVCAR-5; experiment: Growth inhibition of human OVCAR5 cells after 48 hrs by sulforhodamine B assay; format: functional; conditions: OVCAR-5, 48 h
[9] = tested on: HOP-92; experiment: Growth inhibition of human HOP92 cells after 48 hrs by sulforhodamine B assay; format: functional; conditions: HOP-92, 48 h
[10] = tested on: KM12; experiment: Growth inhibition of human KM12 cells after 48 hrs by sulforhodamine B assay; format: functional; conditions: KM12, 48 h
[11] = tested on: 786-0; experiment: Growth inhibition of human 786-0 cells after 48 hrs by sulforhodamine B assay; format: functional; conditions: 786-0, 48 h
[12] = tested on: NCI-H322M; experiment: Growth inhibition of human NCI-H322M cells after 48 hrs by sulforhodamine B assay; format: functional
[13] = tested on: MDA-MB-435; experiment: Growth inhibition of human MDA-MB-435 cells after 48 hrs by sulforhodamine B assay; format: functional; conditions: MDA-MB-435, 48 h
[14] = tested on: HCT-15; experiment: Growth inhibition of human HCT15 cells after 48 hrs by sulforhodamine B assay; format: functional; conditions: HCT-15, 48 h
[15] = tested on: HOP-62; experiment: Growth inhibition of human HOP62 cells after 48 hrs by sulforhodamine B assay; format: functional; conditions: HOP-62, 48 h
[16] = tested on: M14; experiment: Growth inhibition of human M14 cells after 48 hrs by sulforhodamine B assay; format: functional; conditions: M14, 48 h
[17] = tested on: NCI-H23; experiment: Growth inhibition of human NCI-H23 cells after 48 hrs by sulforhodamine B assay; format: functional; conditions: NCI-H23, 48 h
[18] = tested on: SNB-19; experiment: Growth inhibition of human SNB19 cells after 48 hrs by sulforhodamine B assay; format: functional; conditions: SNB-19, 48 h
[19] = tested on: NCI-H522; experiment: Growth inhibition of human NCI-H522 cells after 48 hrs by sulforhodamine B assay; format: functional; conditions: NCI-H522, 48 h
[20] = Growth inhibition of human Hs 578T cells after 48 hrs by sulforhodamine B assay; format: functional
[21] = tested on: HT-29; experiment: Growth inhibition of human HT-29 cells after 48 hrs by sulforhodamine B assay; format: functional; conditions: HT-29, 48 h
[22] = tested on: LOX IMVI; experiment: Growth inhibition of human LOXIMVI cells after 48 hrs by sulforhodamine B assay; format: functional
[23] = tested on: ACHN; experiment: Growth inhibition of human ACHN cells after 48 hrs by sulforhodamine B assay; format: functional
[24] = tested on: EKVX; experiment: Growth inhibition of human EKVX cells after 48 hrs by sulforhodamine B assay; format: functional
[25] = tested on: OVCAR-8; experiment: Growth inhibition of human OVCAR8 cells after 48 hrs by sulforhodamine B assay; format: functional; conditions: OVCAR-8, 48 h
[26] = tested on: OVCAR-3; experiment: Growth inhibition of human OVCAR-3 cells after 48 hrs by sulforhodamine B assay; format: functional; conditions: OVCAR-3, 48 h
[27] = tested on: CCRF-CEM; experiment: Growth inhibition of human CCRF-CEM cells after 48 hrs by sulforhodamine B assay; format: functional
[28] = tested on: HCT-116; experiment: Growth inhibition of human HCT116 cells after 48 hrs by sulforhodamine B assay; format: functional; conditions: HCT-116, 48 h
[29] = tested on: Plasmodium falciparum; experiment: Antimalarial activity after 72 hrs against chloroquine-resistant Plasmodium falciparum W2 infected erythrocytes by LDH assay; format: functional, organism-based; conditions: W2, 72 h
[30] = tested on: PC-3; experiment: Growth inhibition of human PC3 cells after 48 hrs by sulforhodamine B assay; format: functional; conditions: PC-3, 48 h
[31] = tested on: TK-10; experiment: Growth inhibition of human TK10 cells after 48 hrs by sulforhodamine B assay; format: functional; conditions: TK-10, 48 h
[32] = tested on: IGROV-1; experiment: Growth inhibition of human IGROV1 cells after 48 hrs by sulforhodamine B assay; format: functional; conditions: IGROV-1, 48 h
[33] = tested on: SNB-75; experiment: Growth inhibition of human SNB75 cells after 48 hrs by sulforhodamine B assay; format: functional; conditions: SNB-75, 48 h
[34] = tested on: NCI-H460; experiment: Growth inhibition of human NCI-H460 cells after 48 hrs by sulforhodamine B assay; format: functional; conditions: NCI-H460, 48 h
[35] = tested on: A498; experiment: Growth inhibition of human A498 cells after 48 hrs by sulforhodamine B assay; format: functional; conditions: A498, 48 h
[36] = tested on: BT-549; experiment: Growth inhibition of human BT549 cells after 48 hrs by sulforhodamine B assay; format: functional; conditions: BT-549, 48 h
[37] = tested on: UACC-62; experiment: Growth inhibition of human UACC62 cells after 48 hrs by sulforhodamine B assay; format: functional; conditions: UACC-62, 48 h
[38] = tested on: T47D; experiment: Growth inhibition of human T47D cells after 48 hrs by sulforhodamine B assay; format: functional
[39] = tested on: COLO 205; experiment: Growth inhibition of human COLO205 cells after 48 hrs by sulforhodamine B assay; format: functional; conditions: COLO 205, 48 h
[40] = tested on: SK-MEL-28; experiment: Growth inhibition of human SK-MEL-28 cells after 48 hrs by sulforhodamine B assay; format: functional; conditions: SK-MEL-28, 48 h
[41] = tested on: HL-60; experiment: Growth inhibition of human HL-60(TB) cells after 48 hrs by sulforhodamine B assay; format: functional; conditions: HL-60, 48 h
[42] = tested on: MDA-MB-231; experiment: Growth inhibition of human MDA-MB-231 cells after 48 hrs by sulforhodamine B assay; format: functional; conditions: MDA-MB-231, 48 h
[43] = tested on: NCI-H226; experiment: Growth inhibition of human NCI-H226 cells after 48 hrs by sulforhodamine B assay; format: functional; conditions: NCI-H226, 48 h
[44] = tested on: CAKI-1; experiment: Growth inhibition of human Caki1 cells after 48 hrs by sulforhodamine B assay; format: functional; conditions: CAKI-1, 48 h
[45] = tested on: Plasmodium falciparum; experiment: Antimalarial activity after 72 hrs against chloroquine-sensitive Plasmodium falciparum D6 infected in erythrocytes by LDH assay; format: functional, organism-based; conditions: D6, 72 h
[46] = tested on: SN12C; experiment: Growth inhibition of human SN12C cells after 48 hrs by sulforhodamine B assay; format: functional
[47] = tested on: SK-MEL-5; experiment: Growth inhibition of human SK-MEL-5 cells after 48 hrs by sulforhodamine B assay; format: functional; conditions: SK-MEL-5, 48 h

For `C[C@H]1[C@@H](OCC(CO[C@H]2O[C@@H]3O[C@@]4(C)CC[C@H]5[C@H](C)CC[C@@H]([C@H]2C)[C@@]35OO4)OC(=O)CCC(=O)O)O[C@@H]2O[C@@]3(C)CC[C@H]4[C@H](C)CC[C@@H]1[C@@]24OO3` (some centres not stated), which GI50 [1] is on record?
The GI50 was under 10 nM.

What about the GI50 [2] of the same compound?
The GI50 was under 10 nM.

And the GI50 [3]?
The GI50 was under 10 nM.

What about the GI50 [4] of the same compound?
The GI50 was 355 nM.

And the GI50 [5]?
Its GI50 is 207 nM.

What about the GI50 [6] of the same compound?
The GI50 was 69 nM.

And the GI50 [7]?
Its GI50 is 230 nM.

And the GI50 [8]?
The GI50 was under 10 nM.

What about the GI50 [9] of the same compound?
Its GI50 is 121 nM.

And the GI50 [10]?
Its GI50 is under 10 nM.

And the GI50 [11]?
Its GI50 is 23 nM.

And the GI50 [12]?
The GI50 was 10200 nM.

And the GI50 [13]?
Its GI50 is 13 nM.

What about the GI50 [14] of the same compound?
The GI50 was under 10 nM.

What about the GI50 [15] of the same compound?
Its GI50 is 86 nM.

And the GI50 [16]?
The GI50 was under 10 nM.

And the GI50 [17]?
The GI50 was 10 nM.

And the GI50 [18]?
Its GI50 is 10100 nM.

What about the GI50 [19] of the same compound?
Its GI50 is 63 nM.

And the GI50 [20]?
Its GI50 is 186 nM.

What about the GI50 [21] of the same compound?
Its GI50 is under 10 nM.

And the GI50 [22]?
Its GI50 is under 10 nM.

What about the GI50 [23] of the same compound?
The GI50 was 126 nM.

What about the GI50 [24] of the same compound?
The GI50 was 470 nM.

And the GI50 [25]?
The GI50 was 15 nM.

What about the GI50 [26] of the same compound?
The GI50 was 20 nM.

And the GI50 [27]?
The GI50 was 78 nM.

What about the GI50 [28] of the same compound?
Its GI50 is under 10 nM.

And the pIC50 [29]?
Its pIC50 is 5.68.

What about the GI50 [30] of the same compound?
The GI50 was under 10 nM.

And the GI50 [31]?
Its GI50 is 211 nM.

What about the GI50 [32] of the same compound?
Its GI50 is 11100 nM.

What about the GI50 [33] of the same compound?
Its GI50 is 22100 nM.

What about the GI50 [34] of the same compound?
The GI50 was 33 nM.

And the GI50 [35]?
Its GI50 is 13800 nM.

What about the GI50 [36] of the same compound?
Its GI50 is 724 nM.

And the GI50 [37]?
Its GI50 is 77 nM.

And the GI50 [38]?
Its GI50 is under 10 nM.

And the GI50 [39]?
Its GI50 is under 10 nM.

What about the GI50 [40] of the same compound?
Its GI50 is 8380 nM.

What about the GI50 [41] of the same compound?
The GI50 was 11 nM.

What about the GI50 [42] of the same compound?
Its GI50 is 345 nM.

And the GI50 [43]?
Its GI50 is 48 nM.

And the GI50 [44]?
Its GI50 is 44 nM.

And the pIC50 [45]?
Its pIC50 is 5.85.

What about the GI50 [46] of the same compound?
Its GI50 is 16 nM.

And the GI50 [47]?
The GI50 was 147 nM.
